Test results: the NIST ThermoML archive (doi:10.1016/j.jct.2015.12.031)

How the values were obtained:
[1] = mn = molality of the nth substance listed, in mol/kg; settings: 86.5 kPa, Liquid; for speed of sound: Frequency=3 MHz, Sing-around technique in a fixed-path interferometer; for mass density: Vibrating tube method
[2] = refractive index (Na D-line) (dimensionless); mn = molality of the nth substance listed, in mol/kg; settings: 86.5 kPa, Liquid, Standard Abbe refractometry

c1ccsc1 [thiophene] + CCCCCCCC
Settings	mass density, [1] [kg/m3]	refractive index, [2]	speed of sound, [1] [m/s]
288.15 K, m1 = 0.0158	707.297	1.4002	1214.4
288.15 K, m1 = 0.0275	707.523	1.4003	1214.4
288.15 K, m1 = 0.0517	707.987	1.4004	1214.4
288.15 K, m1 = 0.0847	708.616	1.4005	1214.3
288.15 K, m1 = 0.0952	708.817	1.4006	1214.3
288.15 K, m1 = 0.1081	709.062	1.4006	1214.3
288.15 K, m1 = 0.1182	709.253	1.4007	1214.3
288.15 K, m1 = 0.1353	709.577	1.4008	1214.2
288.15 K, m1 = 0.1494	709.844	1.4008	1214.2
288.15 K, m1 = 0.1577	710	1.4009	1214.2
288.15 K, m1 = 0.1729	710.288	1.401	1214.2
288.15 K, m1 = 0.1797	710.414	1.401	1214.2
288.15 K, m1 = 0.1932	710.67	1.4011	1214.2
288.15 K, m1 = 0.2031	710.855	1.4012	1214.1
288.15 K, m1 = 0.3004	712.662	1.4017	1214
288.15 K, m1 = 0.4002	714.496	1.4023	1213.8
288.15 K, m1 = 0.5026	716.351	1.4028	1213.6
288.15 K, m1 = 0.5823	717.77	1.4033	1213.5
293.15 K, m1 = 0.0158	703.296	1.3976	1193.3
293.15 K, m1 = 0.0275	703.52	1.3977	1193.3
293.15 K, m1 = 0.0517	703.981	1.3978	1193.3
293.15 K, m1 = 0.0847	704.605	1.398	1193.2
293.15 K, m1 = 0.0952	704.805	1.3981	1193.2
293.15 K, m1 = 0.1081	705.047	1.3982	1193.2
293.15 K, m1 = 0.1182	705.236	1.3982	1193.2
293.15 K, m1 = 0.1353	705.558	1.3983	1193.2
293.15 K, m1 = 0.1494	705.822	1.3984	1193.2
293.15 K, m1 = 0.1577	705.976	1.3985	1193.2
293.15 K, m1 = 0.1729	706.262	1.3985	1193.2
293.15 K, m1 = 0.1797	706.389	1.3986	1193.1
293.15 K, m1 = 0.1932	706.641	1.3986	1193.1
293.15 K, m1 = 0.2031	706.824	1.3987	1193.1
293.15 K, m1 = 0.3004	708.627	1.3992	1193
293.15 K, m1 = 0.4002	710.432	1.3997	1192.9
293.15 K, m1 = 0.5026	712.275	1.4003	1192.7
293.15 K, m1 = 0.5823	713.683	1.4007	1192.6
298.15 K, m1 = 0.0158	699.223	1.3952	1172.4
298.15 K, m1 = 0.0275	699.447	1.3953	1172.4
298.15 K, m1 = 0.0517	699.907	1.3954	1172.4
298.15 K, m1 = 0.0847	700.53	1.3956	1172.3
298.15 K, m1 = 0.0952	700.728	1.3957	1172.3
298.15 K, m1 = 0.1081	700.97	1.3957	1172.3
298.15 K, m1 = 0.1182	701.159	1.3958	1172.3
298.15 K, m1 = 0.1353	701.48	1.3959	1172.3
298.15 K, m1 = 0.1494	701.743	1.396	1172.3
298.15 K, m1 = 0.1577	701.901	1.3961	1172.3
298.15 K, m1 = 0.1729	702.182	1.3961	1172.3
298.15 K, m1 = 0.1797	702.312	1.3962	1172.2
298.15 K, m1 = 0.1932	702.561	1.3962	1172.2
298.15 K, m1 = 0.2031	702.742	1.3963	1172.2
298.15 K, m1 = 0.3004	704.545	1.3968	1172.1
298.15 K, m1 = 0.4002	706.341	1.3973	1171.9
298.15 K, m1 = 0.5026	708.178	1.3978	1171.8
298.15 K, m1 = 0.5823	709.577	1.3982	1171.6
303.15 K, m1 = 0.0158	695.177	1.3926	1151.5
303.15 K, m1 = 0.0275	695.398	1.3927	1151.5
303.15 K, m1 = 0.0517	695.856	1.3928	1151.4
303.15 K, m1 = 0.0847	696.474	1.393	1151.4
303.15 K, m1 = 0.0952	696.672	1.393	1151.4
303.15 K, m1 = 0.1081	696.912	1.3931	1151.4
303.15 K, m1 = 0.1182	697.101	1.3932	1151.4
303.15 K, m1 = 0.1353	697.419	1.3933	1151.3
303.15 K, m1 = 0.1494	697.682	1.3934	1151.3
303.15 K, m1 = 0.1577	697.834	1.3934	1151.3
303.15 K, m1 = 0.1729	698.118	1.3935	1151.3
303.15 K, m1 = 0.1797	698.244	1.3935	1151.3
303.15 K, m1 = 0.1932	698.492	1.3936	1151.3
303.15 K, m1 = 0.2031	698.675	1.3936	1151.3
303.15 K, m1 = 0.3004	700.46	1.3941	1151.1
303.15 K, m1 = 0.4002	702.25	1.3947	1151
303.15 K, m1 = 0.5026	704.068	1.3953	1150.8
303.15 K, m1 = 0.5823	705.455	1.3957	1150.7
